Data reported in patent US8778923B2, “GLP-1 receptor modulators” (Receptos, Inc., priority 2011, dated 2014).
pEC50: −log10 of the molar value.

The compounds below were run against T1, GLP-1R (Homo sapiens, UniProt P43220) (assay: EC20 GLP-1(9-36) PAM cAMP assay: dose response of compound in the presence of fixed concentration of GLP-1(9-36)). Settings: GLP-1R CRE-bla CHO-K1 cells, compound dose response in presence of fixed concentration of GLP-1(9-36).
T1 construct: host or cells: CRE-bla CHO-K1
Format: cell-based
Method: EC20 GLP-1(9-36) PAM cAMP Assay: Dose Response of Compound in the Presence of Fixed Concentration of GLP-1 (9-36).
GLP-1R CRE-bla CHO-K1 cells cultured in growth medium (DMEM-High glucose, 10% dialyzed FBS, 0.1 mM NEAA, 25 mM Hepes, 100 U/mL penicillin/100 μg/mL streptomycin, 5 μg/mL Blasticidin, 600 μg/mL Hygromycin) were tryspsinized and plated in suspension into 384 well white flat bottom plates at 5000 cells/well in 12 μL assay buffer (Hanks Balanced Salt solution, 10 mM Hepes, 0.1% BSA, pH 7.4). A 5× compound dose response curve (12-point) was generated in assay buffer containing 1.5 mM IBMX, 12.5% DMSO. GLP-1(9-36) was diluted to 4.2 μM in assay buffer containing 1.5 mM IBMX and 12.5% DMSO. The 5× compound dose response was added (3 μL), followed by 0.5 μL of GLP-1(9-36) and cells were incubated for 30 min at 37° C. Direct detection of cAMP was carried out using DiscoveRx HitHunter cAMP kit according to manufacturer's instructions and luminescence was read using a SpectraMax M5 plate reader. Luminescence was converted to total cAMP using a cAMP standard curve and data was analyzed by non-linear regression to determine the EC50 and Emax.
GLP-1(7-36): […]-NH2. GLP-1(9-36): […]-NH2. GLP-1(7-36) was purchased from GenScript. GLP-1(9-36) was purchased from Biopeptide Co., Inc.

T1 sequence (P43220 24-463): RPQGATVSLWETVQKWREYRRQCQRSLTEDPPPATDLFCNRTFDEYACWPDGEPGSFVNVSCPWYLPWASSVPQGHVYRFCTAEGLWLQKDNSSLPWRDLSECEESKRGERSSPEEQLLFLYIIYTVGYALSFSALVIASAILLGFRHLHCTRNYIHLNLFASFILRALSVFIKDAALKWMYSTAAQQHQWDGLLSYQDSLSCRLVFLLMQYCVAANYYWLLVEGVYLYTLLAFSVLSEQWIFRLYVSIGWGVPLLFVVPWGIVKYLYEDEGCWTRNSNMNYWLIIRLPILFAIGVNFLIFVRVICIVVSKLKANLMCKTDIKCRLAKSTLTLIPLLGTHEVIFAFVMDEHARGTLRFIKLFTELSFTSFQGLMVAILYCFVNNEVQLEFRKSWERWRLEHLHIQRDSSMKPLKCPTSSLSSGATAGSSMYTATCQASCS
T1 sequence (P01275 100-127 partner limits assumed): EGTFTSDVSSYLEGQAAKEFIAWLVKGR

| Structure (SMILES) | pEC50 |
| --- | --- |
| CCCCCCCOc1ccc(-c2noc(-c3ccc(C[C@H](NC(=O)c4ccc(C(C)(C)C)cc4)C(=O)O)cc3)n2)cc1 [Compound 1, (S)-2-(4-(tert-butyl)benzamido)-3-(4-(3-(4-(heptyloxy)phenyl)-1,2,4-oxadiazol-5-yl)phenyl)propanoic acid] | 5.60 to 6.10 |
| CCCCCCCOc1ccc(-c2nc(-c3ccc(C[C@H](NC(=O)c4ccc(C(C)(C)C)cc4)C(=O)O)cc3)no2)cc1 [Compound 2, (S)-2-(4-(tert-butyl)benzamido)-3-(4-(5-(4-(heptyloxy)phenyl)-1,2,4-oxadiazol-3-yl)phenyl)propanoic acid] | 5.30 to 5.60 |
| Cc1ccc(-c2ccc(-c3nc(-c4ccc(C[C@H](NC(=O)c5ccc(C(C)(C)C)cc5)C(=O)O)cc4)no3)cc2)cc1 [Compound 3] | 5.00 to 5.30 |
| CC(C)(C)c1ccc(C(=O)N[C@@H](Cc2ccc(-c3noc(-c4ccc(-c5ccccc5)cc4)n3)cc2)C(=O)O)cc1 [Compound 4] | 5.00 to 5.30 |
| CC(C)(C)c1ccc(C(=O)N[C@@H](Cc2ccc(-c3noc(-c4ccc(N5CCCCC5)cc4)n3)cc2)C(=O)O)cc1 [Compound 5] | 5.30 to 5.60 |
| CC1CCN(c2ccc(-c3nc(-c4ccc(C[C@H](NC(=O)c5ccc(C(C)(C)C)cc5)C(=O)O)cc4)no3)cc2)CC1 [Compound 6] | 5.00 to 5.30 |
| Cc1ccc(-c2nc(-c3ccc(C[C@H](NC(=O)c4ccc(C(C)(C)C)cc4)C(=O)O)cc3)no2)cc1 [Compound 7] | 5.00 to 5.30 |
| CC(C)(C)c1ccc(C(=O)N[C@@H](Cc2ccc(-c3noc(-c4ccc(C(C)(C)C)cc4)n3)cc2)C(=O)O)cc1 [Compound 8] | 5.60 to 6.10 |
| COc1cc(C)ccc1-c1nc(-c2ccc(C[C@H](NC(=O)c3ccc(C(C)(C)C)cc3)C(=O)O)cc2)no1 [Compound 9] | 5.00 to 5.30 |
| CC(C)c1ccc(-c2nc(-c3ccc(C[C@H](NC(=O)c4ccc(C(C)(C)C)cc4)C(=O)O)cc3)no2)cc1 [Compound 10] | 5.30 to 5.60 |
| CC(C)(C)c1ccc(C(=O)N[C@@H](Cc2ccc(-c3noc(-c4ccc(C(F)(F)F)cc4)n3)cc2)C(=O)O)cc1 [Compound 11] | 5.60 to 6.10 |
| Cc1cccc(-c2ccc(-c3nc(-c4ccc(C[C@H](NC(=O)c5ccc(C(C)(C)C)cc5)C(=O)O)cc4)no3)cc2)c1 [Compound 13] | 5.60 to 6.10 |
| Cc1ccccc1-c1ccc(-c2nc(-c3ccc(C[C@H](NC(=O)c4ccc(C(C)(C)C)cc4)C(=O)O)cc3)no2)cc1 [Compound 14] | 5.30 to 5.60 |
| COc1ccc(-c2ccc(-c3nc(-c4ccc(C[C@H](NC(=O)c5ccc(C(C)(C)C)cc5)C(=O)O)cc4)no3)cc2)cc1 [Compound 15] | 5.30 to 5.60 |
| CC(C)(C)c1ccc(C(=O)N[C@@H](Cc2ccc(-c3noc(-c4ccc(-c5ccc(Cl)cc5)cc4)n3)cc2)C(=O)O)cc1 [Compound 16] | 5.00 to 5.30 |
| CC(C)(C)c1ccc(C(=O)N[C@@H](Cc2ccc(-c3noc(-c4ccc(-c5cccc(Cl)c5)cc4)n3)cc2)C(=O)O)cc1 [Compound 17] | 5.30 to 5.60 |
| CC(C)(C)c1ccc(C(=O)N[C@@H](Cc2ccc(-c3noc(-c4ccc(-c5ccccc5Cl)cc4)n3)cc2)C(=O)O)cc1 [Compound 18] | 5.60 to 6.10 |

| Structure (SMILES) | pEC50 |
| --- | --- |
| CC(C)(C)c1ccc(C(=O)N[C@@H](Cc2ccc(-c3noc(-c4ccc(-c5ccccc5F)cc4)n3)cc2)C(=O)O)cc1 [Compound 19] | 5.60 to 6.10 |
| CC(C)(C)c1ccc(C(=O)N[C@@H](Cc2ccc(-c3noc(-c4ccc(-c5cccc(F)c5)cc4)n3)cc2)C(=O)O)cc1 [Compound 20] | 5.60 to 6.10 |
| CC(C)(C)c1ccc(C(=O)N[C@@H](Cc2ccc(-c3noc(-c4ccc(-c5ccc(F)cc5)cc4)n3)cc2)C(=O)O)cc1 [Compound 21] | 5.30 to 5.60 |
| CC(C)(C)c1ccc(C(=O)N[C@@H](Cc2ccc(-c3noc(-c4ccc(-c5ccc(F)c(F)c5)cc4)n3)cc2)C(=O)O)cc1 [Compound 22] | 5.30 to 5.60 |
| CC(C)(C)c1ccc(C(=O)N[C@@H](Cc2ccc(-c3noc(-c4ccc(-c5cc(F)ccc5F)cc4)n3)cc2)C(=O)O)cc1 [Compound 23] | 5.30 to 5.60 |
| CC(C)(C)c1ccc(C(=O)N[C@@H](Cc2ccc(-c3noc(-c4ccc(-c5ccc(F)cc5F)cc4)n3)cc2)C(=O)O)cc1 [Compound 24] | 5.60 to 6.10 |
| COc1ccc(-c2ccc(-c3nc(-c4ccc(C[C@H](NC(=O)c5ccc(C(C)(C)C)cc5)C(=O)O)cc4)no3)cc2)c(OC)c1 [Compound 25] | 5.60 to 6.10 |
| COc1cc(OC)cc(-c2ccc(-c3nc(-c4ccc(C[C@H](NC(=O)c5ccc(C(C)(C)C)cc5)C(=O)O)cc4)no3)cc2)c1 [Compound 26] | 5.30 to 5.60 |
| COc1cc(C(F)(F)F)ccc1-c1ccc(-c2nc(-c3ccc(C[C@H](NC(=O)c4ccc(C(C)(C)C)cc4)C(=O)O)cc3)no2)cc1 [Compound 27] | 5.60 to 6.10 |
| CC(C)(C)c1ccc(C(=O)N[C@@H](Cc2ccc(-c3noc(-c4ccc(-c5cccc(C#N)c5)cc4)n3)cc2)C(=O)O)cc1 [Compound 28] | 5.30 to 5.60 |
| CC(C)(C)c1ccc(C(=O)N[C@@H](Cc2ccc(-c3noc(-c4ccc(-c5ccc(C#N)cc5)cc4)n3)cc2)C(=O)O)cc1 [Compound 29] | 5.60 to 6.10 |
| COc1ccc(-c2ccc(-c3nc(-c4ccc(C[C@H](NC(=O)c5ccc(C(C)(C)C)cc5)C(=O)O)cc4)no3)cc2)cc1OC [Compound 30] | 5.60 to 6.10 |
| CC(C)(C)c1ccc(C(=O)N[C@@H](Cc2ccc(-c3noc(-c4ccc(-c5ccccc5C#N)cc4)n3)cc2)C(=O)O)cc1 [Compound 31] | 5.60 to 6.10 |
| CC(C)(C)c1ccc(C(=O)N[C@@H](Cc2ccc(-c3noc(-c4ccc(N5CCCCC5)nc4)n3)cc2)C(=O)O)cc1 [Compound 32] | 5.00 to 5.30 |
| CC(C)Oc1ccc(-c2nc(-c3ccc(C[C@H](NC(=O)c4ccc(C(C)(C)C)cc4)C(=O)O)cc3)no2)cc1 [Compound 33] | 5.30 to 5.60 |
| CCCOc1ccc(-c2nc(-c3ccc(C[C@H](NC(=O)c4ccc(C(C)(C)C)cc4)C(=O)O)cc3)no2)cc1 [Compound 34] | 5.30 to 5.60 |
| CC(C)(C)c1ccc(C(=O)N[C@@H](Cc2ccc(-c3noc(-c4ccc(Oc5ccccc5)cc4)n3)cc2)C(=O)O)cc1 [Compound 35] | 5.30 to 5.60 |

Now from value to compound:

| pEC50 | Structure (SMILES) |
| --- | --- |
| 5.30 to 5.60 | CC(C)(C)c1ccc(C(=O)N[C@@H](Cc2ccc(-c3noc(-c4ccc(OCc5ccccc5)cc4)n3)cc2)C(=O)O)cc1 [Compound 36] |
| 5.30 to 5.60 | COc1ccc(-c2nc(-c3ccc(C[C@H](NC(=O)c4ccc(C(C)(C)C)cc4)C(=O)O)cc3)no2)cc1OC [Compound 37] |
| 5.60 to 6.10 | COc1cc(OC)cc(-c2nc(-c3ccc(C[C@H](NC(=O)c4ccc(C(C)(C)C)cc4)C(=O)O)cc3)no2)c1 [Compound 38] |
| 5.60 to 6.10 | COc1cc(-c2nc(-c3ccc(C[C@H](NC(=O)c4ccc(C(C)(C)C)cc4)C(=O)O)cc3)no2)cc(OC)c1OC [Compound 39] |
| 5.30 to 5.60 | CSc1ccc(-c2nc(-c3ccc(C[C@H](NC(=O)c4ccc(C(C)(C)C)cc4)C(=O)O)cc3)no2)cc1 [Compound 40] |
| 5.30 to 5.60 | CC(C)(C)c1ccc(C(=O)N[C@@H](Cc2ccc(-c3noc(-c4ccc(S(C)(=O)=O)cc4)n3)cc2)C(=O)O)cc1 [Compound 41] |
| 5.30 to 5.60 | CCSc1ccc(-c2nc(-c3ccc(C[C@H](NC(=O)c4ccc(C(C)(C)C)cc4)C(=O)O)cc3)no2)cc1 [Compound 42] |
| 5.30 to 5.60 | CC(C)(C)c1ccc(C(=O)N[C@@H](Cc2ccc(-c3noc(-c4ccc(O)cc4)n3)cc2)C(=O)O)cc1 [Compound 43] |
| 5.30 to 5.60 | CC(=O)Nc1ccc(-c2nc(-c3ccc(C[C@H](NC(=O)c4ccc(C(C)(C)C)cc4)C(=O)O)cc3)no2)cc1 [Compound 44] |
| 5.60 to 6.10 | CC(=O)c1ccc(-c2nc(-c3ccc(C[C@H](NC(=O)c4ccc(C(C)(C)C)cc4)C(=O)O)cc3)no2)cc1 [Compound 45] |
| 5.60 to 6.10 | CCCc1ccc(-c2nc(-c3ccc(C[C@H](NC(=O)c4ccc(C(C)(C)C)cc4)C(=O)O)cc3)no2)cc1 [Compound 46] |
| 5.30 to 5.60 | CN(C)c1ccc(-c2nc(-c3ccc(C[C@H](NC(=O)c4ccc(C(C)(C)C)cc4)C(=O)O)cc3)no2)cc1 [Compound 47] |
| 5.00 to 5.30 | CCN(CC)c1ccc(-c2nc(-c3ccc(C[C@H](NC(=O)c4ccc(C(C)(C)C)cc4)C(=O)O)cc3)no2)cc1 [Compound 48] |
| 5.00 to 5.30 | Cn1ccc2c(-c3nc(-c4ccc(C[C@H](NC(=O)c5ccc(C(C)(C)C)cc5)C(=O)O)cc4)no3)cccc21 [Compound 49] |
| 5.30 to 5.60 | Cn1ccc2cc(-c3nc(-c4ccc(C[C@H](NC(=O)c5ccc(C(C)(C)C)cc5)C(=O)O)cc4)no3)ccc21 [Compound 50] |
| 5.30 to 5.60 | CCCCCCCOc1ccc(-c2nc(-c3ccc(C[C@H](NC(=O)c4ccc(C(C)(C)C)cc4)C(=O)O)cc3)no2)cn1 [Compound 51] |
| 5.60 to 6.10 | CN1CCCc2c(-c3nc(-c4ccc(C[C@H](NC(=O)c5ccc(C(C)(C)C)cc5)C(=O)O)cc4)no3)cccc21 [Compound 52] |
| 5.30 to 5.60 | CN(C)c1cccc(-c2nc(-c3ccc(C[C@H](NC(=O)c4ccc(C(C)(C)C)cc4)C(=O)O)cc3)no2)c1 [Compound 53] |
| 5.30 to 5.60 | CC(C)(C)c1ccc(C(=O)N[C@@H](Cc2ccc(-c3noc(-c4ccc(S(N)(=O)=O)cc4)n3)cc2)C(=O)O)cc1 [Compound 54] |
| 5.30 to 5.60 | CN(CCO)c1ccc(-c2nc(-c3ccc(C[C@H](NC(=O)c4ccc(C(C)(C)C)cc4)C(=O)O)cc3)no2)cc1 [Compound 55] |
